Ten compounds from patent US20240408064A1, “RAS INHIBITORS, COMPOSITIONS AND METHODS OF USE THEREOF” (GENETOLEAD INC., priority 2021, published 2024) can be followed below.

Molecules are shown by their SMILES. Several values for one entry are separate records, joined by “and”; a condition that tells them apart may be missing. Equal entries are not always repeated. Entries after “also recorded” stand apart in the source; their conditions may differ. Some results are limits rather than exact numbers.

Data set [1] concerns the target T1, HRas^G12V (Homo sapiens (Human), UniProt P01112, G12V). As to the kind of experiment: Overall binding/activity in the various assays (NMR consensus binding). Put shortly:
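Fragments (240 µM each, pooled) screened against 50 µM HRas^G12V in 25 mM sodium phosphate pH 7.4, 150 mM NaCl, 5 mM MgCl2, 1 mM TCEP-d16 by 1H-decoupled 1D 19F NMR. Hits confirmed by ligand- and protein-observed 1D 1H, STD and T2-CPMG (aggregation check); consensus binding ranked, with 15N HSQC for sites and Kd.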

Data set [2] can be described thus: Solubility and free-state aggregation in the NMR screen. The class given is physicochemical. As to conditions: NMR buffer. From the text: Fragment screening has been performed using a library containing 461 fragments that has been designed using cheminformatics parameters such as Rule of Three and PAINS analysis. All fragments have been curated by ^1H and ^19F NMR for structure verification, purity, solubility in phosphate buffer and lack of apparent aggregation under these conditions. Fragments were pooled according to chemical compatibility resulting in 31 different pools to increase screening throughput. The library was provided by NMX Research in Solutions Inc.
Because of its power to probe the intrinsically weak interactions (Kd) between targets and low-molecular weight fragments, NMR fragment-based lead discovery (FBLD) is a very useful biophysical method in early stage drug discovery, especially for challenging target proteins; including those with shallow binding pockets. Since FBLD screens are performed using low-molecular weight compounds (fragments) with lower structural complexity, the same chemical space can be covered using a smaller number of drug-like fragments versus use of large libraries of higher-molecular weight lead-like compounds as in high throughput screening (HTS) campaigns. Therefore, FBLD has a much higher hit rate than HTS using only several hundred to several thousand compounds in comparison with approximately 1 million compounds for HTS. Also, the small size of the compounds screened in FBLD means a better chance to fully match the interactions with small or transient pockets within the target protein, where these less tractable pockets cannot be accessed with standard classical HTS methods. […] We expect this methodology to be more advantageous than classical HTS methods for expediting the time from hit to lead (H2L) and allows for rapid access to high quality leads with lower attrition rates in subsequent lead optimization (LO) campaigns toward pre-clinical candidate selection. FBLD screening by NMR involves a “consensus binding” approach where several distinct NMR experiments (DLB, STD, CPMG) are applied along with a free-state aggregation detection method (T2-CPMG) to rank the compounds for their affinity to the receptor (HRAS in this case) whilst simultaneously monitoring the solution behavior and critical quality attributes of each compound. The latter helps to eliminate artifact binders which are highly problematic. We performed a fluorine screen involving 461 compounds that were derived from a highly curated fragment library. Moreover, two-dimensional ^15N HSQC NMR was also used to validate ligand-binding sites on the target protein. In addition, we employed protein-detected biophysical measurements were employed to determine fragment binding affinities to the target protein (Kd) by HSQC NMR. From the results, we picked the most interesting hit were picked, FS-1255 that was identified based on consensus binding evidence from all NMR detection methods, and based the lack of free-state aggregation by T2-CPMG. We chose to prioritize on FS-1255 which was the most promising fragment hit.

Data set [3] addresses T2, KRAS^G12D-GDP (Homo sapiens (Human), UniProt P01116, G12D). Briefly: NMR Kd, KRAS^G12D-GDP. As to conditions: 1H 1D protein-observed NMR, read-out: 1H 1D PO NMR Kd. The class given is binding. The protocol: (§1) ^1H/^15N Fast-HSQC experiments (Mori et al., Journal of Magnetic Resonance, Series B, Volume 108, Issue 1, July 1995, Pages 94-98) were recorded at a protein concentration of 50-100 μM.
(§2) Dissociation constants were obtained by monitoring changes in chemical shifts as a function of ligand concentration. The changes in chemical shifts (d) were calculated according to the following equation (Williamson, Progress in Nuclear Magnetic Resonance Spectroscopy, Volume 73, August 2013, Pages 1-16): d=√(1/2[δ_H^2+[…]]), Where δ are the changes in chemical shift in ppm for ^1H and ^15N and the correction factor (α) was set at 0.15.
(§3) ^1H 1D protein-observed experiments were recorded with 15-50 μM protein. The standard Bruker 1D ^1H sequence with excitation sculpting (zgesgp) was employed. A relaxation delay of 1 s was employed in order to use 256 scans while still keeping experimental time fairly short. Changes in protein chemical shift or peak intensity in the methyl region were monitored against compound concentration.
(§4) The activity of compounds of the invention regarding KRAS^G12D-GDP was measured in the same as in Example 80. The results obtained with the compounds in the various assays described above are depicted in Table 23.

Data set [4] has as its target T1, HRas^G12V. As to the kind of experiment: Dissociation constant by NMR (1H/15N Fast-HSQC, 1H 1D protein-observed). The class given is binding. As to conditions: HRas^G12V; read-out: NMR Kd. The protocol:
All NMR experiments were collected using 3 mm NMR tubes on a 600 MHz Bruker Avance III spectrometer equipped with a QCI helium cryoprobe and a SampleJet sample changer. The buffer used for NMR experiments was 25 mM sodium phosphate pH 7.4, 150 mM NaCl, 5 mM MgCl2, 1 mM TCEP-d16, 10% D2O. Data were processed using Bruker TopSpin.
as §1, §2, §3

The target in data set [5] is T2, KRAS^G12D-GDP. Briefly: Overall activity in the various assays, KRAS^G12D-GDP. The class given is binding. Here is the method:
as §4

The target in data set [6] is T2, KRAS^G12D-GDP. Briefly: 19F T2-CPMG score, KRAS^G12D-GDP. The class given is binding. The protocol:
(§5) Since the fragment library was curated using phosphate buffer, 25 mM sodium phosphate pH 7.4, 150 mM NaCl, 5 mM MgCl2, 1 mM TCEP-d16, 10% D2O Fresh TCEP was used for experiments. Screening was performed using ^1H-decoupled 1D ^19F experiment Bruker experiment (zgfhigqn.2) with 64 scans and a relaxation delay of 5 seconds. 50 μM HRas^G12V and 240 μM of each fragment in pools (mixtures) were used.
(§6) Hit confirmation was performed using the same ^19F experiment as the screen. Ligand-observed 1D ^1H, protein-observed 1D ^1H, ^1H T2-CPMG as well as Saturation Transfer Difference (STD) experiments were also run on the same samples. Ligand-observed 1D ^1H was run using the standard Bruker sequence with excitation sculpting (zgesgp) with a relaxation delay of 10 seconds and 16 scans per spectrum. Protein-observed 1D ^1H was performed using the same sequence with a relaxation delay of 1 second and 256 scans in order to increase the signal-to-noise of the protein resonances, while keeping the experimental time relatively short. The ^1H T2-CPMG experiment employed a modified version of the Bruker 1D ^1H zgesgp experiment with the addition of a CPMG pulse train after the first 90° excitation pulse. Total duration for each spin echo was fixed at 1 ms (τ=500 μs), while the number of echoes in the pulse train was varied according to the total time (T). The number of scans for each spectrum was 4 and eight delay times were run on each sample, ranging from 1 ms to 800 ms.
as §4

Data set [7] addresses T2, KRAS^G12D-GDP. As to the kind of experiment: 19F DLB score, KRAS^G12D-GDP. The class given is binding. Also on record: scale not given here. The protocol: as §5, §6, §4
The target in data set [8] is T1, HRas^G12V. As to the kind of experiment: 19F DLB (ligand-observed 19F NMR) score. The class given is binding. Also on record: scale not given here. Put shortly: (§7)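 In the T2-CPMG experiment, echo spacing was 1 ms and total delays ranged over eight values from 1 to 800 ms. Both scores come from 600 MHz NMR of 50 μM HRas G12V mixed with fragment pools at 240 μM each, in phosphate buffer pH 7.4 with NaCl, MgCl2 and TCEP-d16. Ligand-observed 19F spectra were recorded with 1H decoupling, 64 scans and a 5 s relaxation delay.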

In data set [9] the target is T1, HRas^G12V. Briefly: 19F T2-CPMG NMR score. The class given is binding. Put shortly: as §7
Data set [10] has as its target T3, wild type HRAS (Homo sapiens (Human), UniProt P01112). As to the kind of experiment: 19F T2-CPMG score, wild type HRAS. The class given is binding. Here is the method:
as §5, §6
(§8) The activity of compounds of the invention regarding wild type HRAS was measured in the same as in Example 80. The results obtained with the compounds in the various assays described above are depicted in Table 2.

Data set [11] concerns the target T3, wild type HRAS. As to the kind of experiment: 19F DLB score, wild type HRAS. The class given is binding. Here is the method: as §5, §6, §8
Data set [12] deals with T3, wild type HRAS. As to the kind of experiment: NMR Kd, wild type HRAS. The class given is binding. Here is the method: as §1, §2, §3, §8

Consider `N#Cc1ccc(NC(=O)Cc2c[nH]c3cc(F)ccc23)cc1` [Compound 10054], for which the “Binding to HRas^G12V (in words)” value in data set [1] is listed as “low or no binding”. In addition, the “Solution behaviour in the NMR screen” value in data set [2] is reported as “Not soluble”.

For the compound `CC(=O)N1CCN(C(=O)Cc2c[nH]c3cc(F)ccc23)CC1` [Compound 10040], in [1], the “Activity ranking on HRas^G12V (in words)” value is “More active”. Moreover, the values for the Kd in data set [3] and in data set [4] were 5.2 mM and 4.03 to 9.5 mM, respectively. Also, the “Activity ranking on KRAS^G12D-GDP (in words)” value in [5] was “most active”. The figures for the “19F T2-CPMG Score” value in data set [6] and in data set [9] were 7.49 and 12.69, respectively. In addition, the entries for the “19F DLB Score” value in data set [7] and in data set [8] were 1.63 and 1.64, respectively.

For the compound `Cc1ccc(Cl)cc1NC(=O)Cc1c[nH]c2cc(F)ccc12` [Compound 10061], the “Binding to HRas^G12V (in words)” value in [1] is given as “low or no binding”. Moreover, in [2], the “Solution behaviour in the NMR screen” value was “Not soluble”.

For `CN(C)CC(=O)Nc1cccc(NC(=O)C(C#N)c2c[nH]c3cc(F)ccc23)c1` (stereo not drawn) [Compound 11032], in data set [1], the “Activity ranking on HRas^G12V (in words)” value was “More active; also recorded: Most active”. Moreover, the “19F T2-CPMG Score” value in [10] and in data set [9] was “<LLOQ” throughout. Besides, the “19F DLB Score” value is 5.76 in data set [11] and 4.73 in [8].

As for `COc1ccc(NC(=O)Cc2c[nH]c3cc(F)ccc23)cc1Cl` [Compound 10055], the “Binding to HRas^G12V (in words)” value in [1] is recorded as “low or no binding”. Moreover, the “Solution behaviour in the NMR screen” value in [2] is “Not soluble”.

For the compound `COc1ccc(NC(=O)Cc2c[nH]c3cc(F)ccc23)cc1F` [Compound 10056], the “Binding to HRas^G12V (in words)” value in [1] was “low or no binding”. For the same compound, the “Solution behaviour in the NMR screen” value in [2] is listed as “Not soluble”.

`CN(C)Cc1c[nH]c2cc(F)ccc12` [FS-1255, reference compound]: in [1], the “Binding to HRas^G12V (in words)” value was “weak binding affinity”. Also, the dissociation constant Kd is 9.83 to 12 mM in data set [4] and 6.07 mM in data set [12]. Further, the “19F T2-CPMG Score” value in data set [6] is on record as 3.62; in data set [9] it was 5.22. Also, the “19F DLB Score” value in data set [7] is 1.51; in [8] it was 1.77 and 1.7 and 1.65.

Turning to `O=C(Cc1c[nH]c2cc(F)ccc12)Nc1cccc(F)c1` [Compound 10072], the “Binding to HRas^G12V (in words)” value in [1] was “low or no binding”. The “Solution behaviour in the NMR screen” value in [2] is given as “Aggregated”.

For the compound `CN(C)Cc1[nH]c2cc(F)ccc2c1C(CC(=O)O)c1ccccc1F` (stereo not drawn) [Compound 11066], the “Activity ranking on HRas^G12V (in words)” value in data set [1] was “More active”. For the same compound, the “Activity ranking on KRAS^G12D-GDP (in words)” value in data set [5] is “most active”. The “19F DLB Score” value in [8] was found to be 0.91. Moreover, the “19F T2-CPMG Score” value in [9] is reported as −0.25.

For the compound `COc1cc(Cl)ccc1NC(=O)Cc1c[nH]c2cc(F)ccc12` [Compound 10051], the “Binding to HRas^G12V (in words)” value in data set [1] is on record as “low or no binding”. Further, the “Solution behaviour in the NMR screen” value in data set [2] is listed as “Not soluble”.
